The record followed here is patent US20070027175A1, “Antineoplastic activities of ellipticine and its derivatives” (priority 2005, published 2007).

What all share (assay type): cell-based, human
The subject of one data set is U266 cells. As to the kind of experiment: Flow cytometry apoptosis (Annexin V-FITC/7-AAD). Particulars: 12 hours, EPED3 2 μM, Velcade 0.5 μM. The protocol:
FIGS. 14A-14L show flowcytometry analyses of cell viability and cell cycle arrest under EPED3 and Velcade treatments. U266 cells were co-cultured without contact with human fetal bone mesenchymal cells. Cells were untreated (Control; FIGS. 14A, 14D, 14G, 14J) or exposed to […] (FIGS. 14B, 14E, 14H, 14K) or […] (FIGS. 14C, 14F, 14I, 14L) for 12 hours and then harvested. Pan-caspase inhibitor Z-VAD-FMK ([…]) was also added to co-cultures (FIGS. 14D-14F and FIGS. 14J-14L) to block caspase-dependent apoptosis and then analyzed for cell cycling arrest. Percent cells in G0+G1 and G2+M phases were measured by the peaks of DNA helix and are gated with each graph (FIGS. 14A-14F). Percent cells with fragmented DNA are indicated as c % in each graph. Cells were also analyzed for apoptotic status (FIGS. 14G-14L) using Coulter Annexin-V FITC/7-AAD kit. Untreated cells (Control; FIGS. 14G and 14J) were maintained at high viability (90%). Early apoptotic cells were gated at G4, and necrotic cells were gated at G2; percent cells in each population are indicated with each graph. The arrows indicate percent viable cells ingested EPED3, whose fluorescent property was captured at channel FL4 (FIGS. 14H, 14K).
Apoptosis was detected using the Annexin V-fluorescein isothiocyanate (FITC)/7-AAD kit (Beckman Coulter, Inc.). Myeloma cells were harvested from co-culture inserts and washed in PBS; 5×10^5 cells were incubated on ice with 100 μl of binding buffer (10 μl Annexin V-FITC and 20 μl of 7-AAD) for 15 minutes. Samples were analyzed using EPICS XL-MCL flowcytometer equipped with EXPO32 ADC software (Beckman Coulter, Inc.).
To investigate the effects of EPED3 on apoptosis and cell cycle arrest of myeloma cells, U266 cells were exposed to EPED3 (2 μM) or Velcade (0.5 μM) in co-culture without direct contact with fetal human bone mesenchymal cells. Twelve hours after treatment, cells were harvested for using flow cytometry to detect ongoing apoptosis and cell cycle arrest.
(In general: In flow cytometry, cells or beads pass a laser one at a time.)

Data set [1] relates to myeloma cell lines (JJN3, L363, OCI-MY5, and U266). The data set is described as follows: MTT comparison with clinical anti-myeloma agents, four cell lines. The following applies: 24 and 48 hours. The protocol:
Myeloma cells were suspended in fresh medium at […] and seeded into 96-well plates in 50-μl aliquots (10,000 cells/well). After treating cells in each well with the appropriate compound (50-μl aliquots of 2× stock solution) and medium control, the methylthiazolyldiphenyl-tetrazolium bromide (MTT) assay kit (Promega, Madison, Wis.) was used to determine cell proliferation, according to manufacturer's instructions. Briefly, dye solution was added to each well (15 μl/well) and incubated for 4 hours at 37° C. and 5% CO2; 100 μl of the solubilization solution/stop mix was then added. The plates were read at 570 nm in a plate reader, and the A570 nm values were corrected by A650 nm. All experiments were conducted in triplicate.
In vitro comparison of EPED3 to ellipticine and four anti-myeloma agents commonly used in clinical treatment regimens was carried out with four myeloma cell lines (JJN3, L363, OCI-MY5, and U266). EPED3, ellipticine, Dox, dexamethasome, VP-16-213, and Velcade were applied in a two-fold dilution series ranging from 0.1 to 6.4 μM. Cell proliferation was assessed using MTT assays 24 and 48 hours after initiating treatments.

Data set [2] relates to 12 myeloma cell lines (Ark, BW288, CAG, Delta47, DF15, JJN3, kms11, L363, opm2, RPMI8226, U266 and XG1). As to the kind of experiment: Comparative study with existing anti-myeloma drugs (CellTiter-Glo). Set-up: time to inhibition of cell proliferation: dose or concentration left out as unconfirmed. The source says: The results obtained from these controls are pooled together in the figure (●). The dose of each compound was set […].
Comparative study of NSC 338258 with existing anti-myeloma drugs Myeloma cell lines were exposed to NSC 338258 and existing anti myeloma drugs, Adriamycin® (Doxorubicin Hydrochloride) and Etoposide (VP-16-213) in ninety six well culture plates. The concentration of each compound was set […]. […] The cell growth was near zero in the following days (day 4 onwards; FIG. 6). It was also observed that 12 myeloma cell lines (Ark, BW288, CAG, Delta47, DF15, JJN3, kms11, L363, opm2, RPMI8226, U266 and XG1) responded to the same dosage (0.2 μM) of NSC 338258, VP-16-213 and Adriamycin in 5 days.
For orientation: ATP-based viability assays read luminescence as a measure of living cells.

Data set [3] concerns Fetal bone mesenchymal cells. As to the kind of experiment: Selectivity: viability of normal fetal bone mesenchymal cells (CellTiter-Glo). The following applies: 0.01-1.0 mM; five days. The protocol:
The cell viability was tested every day for a period of five days. It was observed that these cells were not killed by the concentrations that were otherwise toxic to the myeloma cells.
Fetal bone mesenchymal cells were contacted with NSC 338258 in ninety six well culture plates. The concentrations of NSC 338258 were set at 0.01, 0.03. 0.1, 0.3 and 1.0 mM (FIG. 7).

Where [4] appears, read: co-culture without direct contact.
The mark [5] stands for this setting: with pan-caspase inhibitor Z-VAD-FMK.

Some results are limits rather than exact numbers.

On to `CC(C)C[C@H](NC(=O)[C@H](Cc1ccccc1)NC(=O)c1cnccn1)B(O)O` [Velcade, bortezomib, reference compound], for which, in the data set on U266 cells (setting [4]), the apoptotic cells came to 20.6% and the necrotic cells amounted to 31.3%. In the data set with U266 cells (setting [5]), this molecule yielded an apoptotic cells of 25% and a necrotic cells of 2.8%.

Turning to `Cc1c2ccncc2c(C)c2c1[nH]c1ccc(OCCN(C)C)cc12` [NSC 338258, ellipticine, 9-dimethyl amino-ethoxy-], in the data set with U266 cells (setting [4]), the apoptotic cells was found to be 36% and the necrotic cells is on record as 9.7%. In the data set on U266 cells (setting [5]), this molecule gave an apoptotic cells of 8.9% and a necrotic cells of 18.9%. The “concentration at which cell viability is inhibited as effectively as Velcade” value in data set [1] amounted to 0.4 µM. Further, the “time to inhibition of cell proliferation” value in data set [2] was at most 24 h. Moreover, the “response of 12 myeloma cell lines” value in data set [2] (0.2 μM, in 5 days) is reported as “responded”. Moreover, in data set [3], the “killing of fetal bone derived normal mesenchymal cells” value was “not killed”.
